Active and inactive are the calls of the source. The rule behind the calls is not given here.
Tests used:
[1] = Drug level in plasma of mouse transplanted with mouse KIF5B-RET Ba/F3 cells at 10 mg/kg, po qd for 10 days measured after 8.5 hrs; format: ADME, organism-based, BaF3; details: time 10 day
BaF3 [2] = experiment: Antiproliferative activity against mouse KIF5B-RET BaF3 cells by cell based assay; format: functional
[3] = Toxicity in mouse transplanted with mouse KIF5B-RET Ba/F3 cells assessed as change in body weight at 10 mg/kg, po […] for 10 days relative to control; format: organism-based, BaF3; details: in vivo, 240 h, time 10 day
BaF3 [4] = experiment: Antitumor activity against mouse KIF5B-RET BaF3 cells xenografted in nu/nu mouse assessed as tumour growth inhibition at 10 mg/kg, po qd for 10 days; format: functional, organism-based; details: time 10.0 day
[5] = target: T1, Receptor-type tyrosine-protein kinase FLT3 (Homo sapiens, UniProt P36888); experiment: Inhibition of FLT3 (unknown origin)
T1 sequence (P36888 whole entry): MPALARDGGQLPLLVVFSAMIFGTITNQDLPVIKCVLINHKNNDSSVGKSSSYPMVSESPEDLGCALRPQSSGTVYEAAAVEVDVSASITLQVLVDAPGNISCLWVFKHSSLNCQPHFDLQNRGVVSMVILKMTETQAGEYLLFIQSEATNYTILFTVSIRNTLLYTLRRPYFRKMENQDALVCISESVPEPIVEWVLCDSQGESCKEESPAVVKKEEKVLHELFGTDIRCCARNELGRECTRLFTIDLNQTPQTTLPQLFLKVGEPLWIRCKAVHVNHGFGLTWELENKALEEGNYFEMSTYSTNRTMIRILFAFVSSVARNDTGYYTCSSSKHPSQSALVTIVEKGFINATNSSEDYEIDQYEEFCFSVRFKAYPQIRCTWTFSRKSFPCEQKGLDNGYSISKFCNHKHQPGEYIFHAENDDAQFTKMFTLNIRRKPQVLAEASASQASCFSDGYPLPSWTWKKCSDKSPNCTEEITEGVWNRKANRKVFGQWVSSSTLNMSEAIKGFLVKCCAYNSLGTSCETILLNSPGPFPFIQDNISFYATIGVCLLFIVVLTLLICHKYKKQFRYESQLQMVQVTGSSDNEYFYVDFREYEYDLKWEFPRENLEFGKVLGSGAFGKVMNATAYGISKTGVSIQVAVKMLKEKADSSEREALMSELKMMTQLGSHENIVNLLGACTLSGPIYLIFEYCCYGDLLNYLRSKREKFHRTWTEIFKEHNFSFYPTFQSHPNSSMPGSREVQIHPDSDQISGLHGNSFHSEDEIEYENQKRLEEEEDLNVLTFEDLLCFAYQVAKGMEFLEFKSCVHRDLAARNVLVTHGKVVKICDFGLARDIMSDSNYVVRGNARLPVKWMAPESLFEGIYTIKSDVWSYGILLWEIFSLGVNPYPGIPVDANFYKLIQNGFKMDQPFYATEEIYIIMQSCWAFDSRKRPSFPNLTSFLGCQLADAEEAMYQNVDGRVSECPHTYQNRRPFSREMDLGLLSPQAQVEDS

[6] = Intrinsic clearance in mouse liver microsomes; format: ADME, Microsome; details: read-out: CLH
[7] = AUC in mouse plasma at 10 mg/kg, po; format: ADME, organism-based; set-up: dose 10 mg/kg
[8] = Clearance in mouse; format: ADME, organism-based; details: in vivo
[9] = Volume of distribution in mouse; format: ADME, organism-based; details: in vivo
[10] = Drug level in tumor of mouse transplanted with mouse KIF5B-RET Ba/F3 cells at 10 mg/kg, po qd for 10 days measured after 8.5 hrs; format: ADME, organism-based, Neoplasm, BaF3; details: in vivo, 240 h, time 10 day
[11] = target: Tyrosine-protein kinase JAK2 (Homo sapiens, UniProt O60674); experiment: Inhibition of JAK2 (unknown origin)
[12] = Toxicity in mouse transplanted with mouse KIF5B-RET Ba/F3 cells assessed as change in body weight at 20 mg/kg, po […] for 10 days relative to control; format: organism-based, BaF3; details: in vivo, 240 h, time 10 day
[13] = target: Proto-oncogene tyrosine-protein kinase receptor Ret (Homo sapiens, UniProt P07949, V804M); experiment: Inhibition of RET V804M mutant (unknown origin)
BaF3 [14] = experiment: Antitumor activity against mouse KIF5B-RET BaF3 cells xenografted in nu/nu mouse assessed as tumour growth inhibition at 20 mg/kg, po qd for 10 days; format: functional, organism-based; details: time 10.0 day
[15] = target: Proto-oncogene tyrosine-protein kinase receptor Ret (Homo sapiens, UniProt P07949); experiment: Inhibition of RET wild type (unknown origin)
[16] = Intrinsic clearance in human liver microsomes; format: ADME, Microsome; details: read-out: CLH
[17] = target: Proto-oncogene tyrosine-protein kinase receptor Ret (Homo sapiens, UniProt P07949, M918T); experiment: Inhibition of RET M918T mutant (unknown origin)
[18] = Oral bioavailability in mouse; format: ADME, organism-based; details: in vivo

Tyrosine-protein kinase JAK2, sequence (O60674 whole entry): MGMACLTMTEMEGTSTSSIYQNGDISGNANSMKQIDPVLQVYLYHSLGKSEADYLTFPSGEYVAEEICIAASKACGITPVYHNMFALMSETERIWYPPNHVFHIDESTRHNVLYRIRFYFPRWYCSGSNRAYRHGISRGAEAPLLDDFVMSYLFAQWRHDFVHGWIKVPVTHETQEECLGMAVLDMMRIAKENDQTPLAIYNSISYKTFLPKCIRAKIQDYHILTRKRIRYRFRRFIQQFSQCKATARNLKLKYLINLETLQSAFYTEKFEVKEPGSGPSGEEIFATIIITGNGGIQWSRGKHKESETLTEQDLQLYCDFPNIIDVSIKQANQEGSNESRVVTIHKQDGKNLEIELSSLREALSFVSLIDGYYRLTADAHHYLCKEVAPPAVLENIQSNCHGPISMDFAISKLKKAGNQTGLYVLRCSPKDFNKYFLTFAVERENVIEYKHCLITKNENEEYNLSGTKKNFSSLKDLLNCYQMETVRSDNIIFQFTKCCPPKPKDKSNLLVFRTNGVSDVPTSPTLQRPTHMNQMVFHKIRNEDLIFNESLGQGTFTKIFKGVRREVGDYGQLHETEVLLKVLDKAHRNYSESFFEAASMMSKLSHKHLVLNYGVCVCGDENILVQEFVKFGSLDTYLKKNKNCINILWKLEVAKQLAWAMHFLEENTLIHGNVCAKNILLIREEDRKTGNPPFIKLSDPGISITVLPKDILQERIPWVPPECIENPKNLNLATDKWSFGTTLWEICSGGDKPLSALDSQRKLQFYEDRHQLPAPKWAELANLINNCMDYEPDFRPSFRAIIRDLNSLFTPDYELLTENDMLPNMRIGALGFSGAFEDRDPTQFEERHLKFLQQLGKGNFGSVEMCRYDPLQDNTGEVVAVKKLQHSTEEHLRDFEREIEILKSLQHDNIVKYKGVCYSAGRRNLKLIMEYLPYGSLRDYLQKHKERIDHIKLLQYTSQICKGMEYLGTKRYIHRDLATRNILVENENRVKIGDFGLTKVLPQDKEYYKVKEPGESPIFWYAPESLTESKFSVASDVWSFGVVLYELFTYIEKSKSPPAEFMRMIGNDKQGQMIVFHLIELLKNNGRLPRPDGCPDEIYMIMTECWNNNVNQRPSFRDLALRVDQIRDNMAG
Proto-oncogene tyrosine-protein kinase receptor Ret (Homo sapiens, UniProt P07949, M918T), sequence (P07949 29-1114 M918T limits assumed): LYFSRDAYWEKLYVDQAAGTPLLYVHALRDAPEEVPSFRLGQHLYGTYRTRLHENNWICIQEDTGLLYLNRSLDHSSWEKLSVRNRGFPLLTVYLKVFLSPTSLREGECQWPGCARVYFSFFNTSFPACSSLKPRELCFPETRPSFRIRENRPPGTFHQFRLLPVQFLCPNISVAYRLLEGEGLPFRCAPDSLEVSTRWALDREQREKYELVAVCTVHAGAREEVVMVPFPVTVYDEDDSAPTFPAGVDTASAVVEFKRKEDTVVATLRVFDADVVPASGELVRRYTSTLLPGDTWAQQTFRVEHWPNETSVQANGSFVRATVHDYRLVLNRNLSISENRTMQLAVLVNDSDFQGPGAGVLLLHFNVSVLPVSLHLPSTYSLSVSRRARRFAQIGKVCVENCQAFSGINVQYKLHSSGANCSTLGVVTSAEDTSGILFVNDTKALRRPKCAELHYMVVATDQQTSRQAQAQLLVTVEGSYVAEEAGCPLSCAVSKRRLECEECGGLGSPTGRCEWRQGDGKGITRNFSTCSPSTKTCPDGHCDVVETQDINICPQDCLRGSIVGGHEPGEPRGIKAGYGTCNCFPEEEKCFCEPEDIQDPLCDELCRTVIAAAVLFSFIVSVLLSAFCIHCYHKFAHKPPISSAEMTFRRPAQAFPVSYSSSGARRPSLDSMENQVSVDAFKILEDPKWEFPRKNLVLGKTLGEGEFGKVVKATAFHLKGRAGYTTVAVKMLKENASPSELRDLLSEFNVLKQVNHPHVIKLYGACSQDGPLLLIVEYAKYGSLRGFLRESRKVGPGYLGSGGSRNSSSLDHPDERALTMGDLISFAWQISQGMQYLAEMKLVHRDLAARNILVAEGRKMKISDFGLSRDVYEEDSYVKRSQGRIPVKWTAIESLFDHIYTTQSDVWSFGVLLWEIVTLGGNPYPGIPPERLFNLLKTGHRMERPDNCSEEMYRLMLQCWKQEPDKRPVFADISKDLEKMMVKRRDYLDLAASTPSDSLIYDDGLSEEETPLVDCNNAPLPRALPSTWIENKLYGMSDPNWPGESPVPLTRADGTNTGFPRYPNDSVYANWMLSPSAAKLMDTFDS
Proto-oncogene tyrosine-protein kinase receptor Ret (Homo sapiens, UniProt P07949, V804M), sequence (P07949 29-1114 V804M limits assumed): as the sequence (P07949 29-1114 M918T limits assumed) above, with V776M, T890M counted along it
Proto-oncogene tyrosine-protein kinase receptor Ret (Homo sapiens, UniProt P07949), sequence (P07949 whole entry): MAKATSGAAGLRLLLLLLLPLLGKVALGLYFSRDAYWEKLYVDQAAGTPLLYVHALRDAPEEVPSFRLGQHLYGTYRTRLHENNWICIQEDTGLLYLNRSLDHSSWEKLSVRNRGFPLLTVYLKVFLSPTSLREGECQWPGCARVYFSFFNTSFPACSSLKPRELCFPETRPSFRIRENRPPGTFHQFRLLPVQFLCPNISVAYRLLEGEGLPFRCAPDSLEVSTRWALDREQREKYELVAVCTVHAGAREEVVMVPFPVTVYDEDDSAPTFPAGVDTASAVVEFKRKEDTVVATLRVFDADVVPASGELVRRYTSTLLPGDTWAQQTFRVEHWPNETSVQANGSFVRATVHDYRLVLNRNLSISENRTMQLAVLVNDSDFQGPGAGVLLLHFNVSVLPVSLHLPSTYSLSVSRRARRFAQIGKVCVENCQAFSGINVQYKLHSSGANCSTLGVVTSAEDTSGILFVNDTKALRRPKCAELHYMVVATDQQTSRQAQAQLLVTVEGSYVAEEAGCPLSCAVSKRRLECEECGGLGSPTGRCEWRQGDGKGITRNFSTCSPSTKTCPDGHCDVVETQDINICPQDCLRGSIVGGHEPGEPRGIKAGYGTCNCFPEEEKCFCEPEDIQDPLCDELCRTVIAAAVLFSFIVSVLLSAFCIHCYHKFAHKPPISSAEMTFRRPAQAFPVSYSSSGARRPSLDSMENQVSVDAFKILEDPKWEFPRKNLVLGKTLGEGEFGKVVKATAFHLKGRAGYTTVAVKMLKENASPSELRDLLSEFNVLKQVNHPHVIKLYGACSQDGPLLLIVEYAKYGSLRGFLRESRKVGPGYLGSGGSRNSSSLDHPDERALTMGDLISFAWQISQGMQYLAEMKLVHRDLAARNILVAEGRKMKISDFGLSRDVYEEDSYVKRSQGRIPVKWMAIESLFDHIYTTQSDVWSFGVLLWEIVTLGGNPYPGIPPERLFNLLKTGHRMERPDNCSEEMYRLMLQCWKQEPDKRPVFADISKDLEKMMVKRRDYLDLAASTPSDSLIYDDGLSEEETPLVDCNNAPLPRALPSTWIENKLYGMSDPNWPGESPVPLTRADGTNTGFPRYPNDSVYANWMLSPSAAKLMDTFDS

Row | Structure (SMILES) | concentration at 240 h [1] [µM] | IC50 (BaF3 [2]) [nM] | Activity [3] | Activity (BaF3 [4]) | IC50 [5] [nM] | CLint scaled [6] [mL/min/kg] | AUC [7] [µM·h] | clearance [8] [mL/min/kg] | Vd [9] [L/kg] | Drug uptake [10] [nmol/kg] | IC50 [11] [nM] | Activity [12] | IC50 [13] [nM] | Activity (BaF3 [14]) | IC50 [15] [nM] | CLint scaled [16] [mL/min/kg] | IC50 [17] [nM] | bioavailability [18] [%]
1 | Cc1cc(Nc2cc(C)[nH]n2)nc(N2CCC3(CC2)OCCN([C@@H](C)c2ccc(-n4cc(F)cn4)nc2)C3=O)n1 | 3.94 | 19 | Non-Toxic | Active | 30.8 | 79 | 27.7 | 6.6 | 1.5 | 8100 | 4.4 | Non-Toxic | 1.97 | Active | 1.29 | 24.1 | 0.9 | 59.7
2 | Cc1cc(Nc2cc(C)[nH]n2)nc(N2CCC3(CCCN([C@@H](C)c4ccc(-n5cc(F)cn5)nc4)C3=O)CC2)n1 |  | 14 |  |  |  | 155 |  |  |  |  |  |  |  |  |  | 36.4 |  | 
3 | CO[C@]1(C(=O)N[C@@H](C)c2ccc(-n3cc(F)cn3)nc2)CC[C@H](c2nc(C)cc(Nc3cc(C)[nH]n3)n2)CC1 [PRALSETINIB] | 6.32 | 17 | Non-Toxic | Active | 6.5 | < 38 | 46.1 | 5 | 0.7 | 2522 | 2 |  |  |  |  | < 8.6 |  | 77.2
4 | Cc1cc(Nc2cc(C)[nH]n2)nc(N2CCC3(CCCN([C@@H](C)c4cnc(-n5cc(F)cn5)cn4)C3=O)CC2)n1 |  | 19 |  |  |  | 136 |  |  |  |  |  |  |  |  |  | 31.3 |  | 
5 | Cc1cc(Nc2cc(C)[nH]n2)nc(C2CCC3(CCCN([C@@H](C)c4ccc(-n5cc(F)cn5)nc4)C3=O)CC2)n1 (some centres undefined) |  |  |  |  |  | < 38 |  |  |  |  |  |  |  |  |  | < 8.6 |  | 

Reference: ChEMBL document CHEMBL4834457, “Discovery and optimization of selective RET inhibitors via scaffold hopping” (Bioorg Med Chem Lett, 2021)
